# Patent publication US11020482B2, “Methods and compositions related to inhibition of viral entry” (UNIVERSITY OF UTAH RESEARCH FOUNDATION, priority 2011, dated 2021)
# Like-named read-outs stand apart in the source and are kept apart here.
# Experiments:
# [1] = system: HIV JRFL strain pseudovirions; assay: Pseudovirion viral infectivity (entry) assay, JRFL; assay type: cell-based, HIV-1
# Method: (§1) This study included the use of the HIV HXB2 strain and the HIV JRFL strain. Viral infectivity was measured essentially as previously described (Hamburger 2005) with several modifications. 8 μg/mL DEAE-Dextran was used as a fusion enhancer in all assays. Media was changed 22-26 h following infection. […] Fits were weighted by the absolute s.e.m. from quadruplicate points with the minimum allowable error set to 1%.
# (§2) Pseudovirion infectivity assays were carried out using HIV HXB2 strain and HIV JRFL strain luciferase reporter pseudovirions (NL4-3 strain) and HOS-CD4-CXCR4 (for HXB2) or HOS-CD4-CCR5 (for JRFL) target cells (Welch, 2007 and 2010). Inhibitors curves were generated using six concentration points measured in quadruplicate, and luciferase counts were normalized to an uninhibited control. Inhibition curves were fit using a standard IC50 equation (1-c/(IC50+c)) weighting each concentration point by its standard error in KaleidaGraph™ (Synergy Software). Reported IC50 values are the average of at least 2 independent assays.
# [2] = system: HIV HXB2 strain pseudovirions; assay: Pseudovirion viral infectivity (entry) assay, HXB2; assay type: cell-based, HIV-1
# Method: as §1, §2
# [3] = system: Q577R HXB2; assay: Pseudovirion entry assay, resistant strain Q577R; assay type: cell-based, HIV-1; conditions: Table 4; resistance mutation discovered against PIE12-trimer
# Method: as §2
# [4] = system: HIV HXB2 strain pseudovirions; conditions: Table 5; value marked * (from 20); cited from earlier work
# [5] = system: HIV JRFL strain pseudovirions; conditions: Table 5; value marked * (from 20); cited from earlier work
# [6] = system: E560K/V570I HXB2; assay: Pseudovirion entry assay, resistant strain E560K/V570I; assay type: cell-based, HIV-1; conditions: Table 4; resistance mutation discovered against PIE7-dimer
# Method: as §2
# [7] = system: HIV; assay: Infectivity assay; assay type: cell-based
# [8] = system: HIV-1 isolate JR-CSF; assay: Replication competent virus, PBMC target cells; assay type: cell-based; conditions: envelope subtype B
# [9] = system: HIV-1 isolate 92UG029; assay: Replication competent virus, PBMC target cells; assay type: cell-based; conditions: isolate 92UG029, envelope subtype A
# [10] = system: HIV-1 isolate CMU06; assay: Replication competent virus, PBMC target cells; assay type: cell-based; conditions: isolate CMU06, envelope subtype E
# [11] = system: HIV-1 isolate CMU02; assay: Replication competent virus, PBMC target cells; assay type: cell-based; conditions: isolate CMU02, envelope subtype AE
# [12] = system: HIV-1 isolate 92UG001; assay: Replication competent virus, PBMC target cells; assay type: cell-based; conditions: isolate 92UG001, envelope subtype D
# [13] = system: HIV-1 isolate IIIB; assay: Replication competent virus, PBMC target cells; assay type: cell-based; conditions: envelope subtype B
# [14] = system: HIV-1 isolate RU570; assay: Replication competent virus, PBMC target cells; assay type: cell-based; conditions: isolate RU570, envelope subtype G
# [15] = system: HIV-1 isolate 93BR020; assay: Replication competent virus, PBMC target cells; assay type: cell-based; conditions: isolate 93BR020, envelope subtype F
# [16] = system: HIV-1 isolate 93BR019; assay: Replication competent virus, PBMC target cells; assay type: cell-based; conditions: isolate 93BR019, envelope subtype BF
# [17] = system: HIV-1 isolate JR-FL; assay: Replication competent virus, PBMC target cells; assay type: cell-based; conditions: envelope subtype B
# [18] = system: replication competent HIV strains that cover envelope subtypes A, B, C, D, E, F, and G; assay: Inhibitory breadth against replication competent virus panel; assay type: cell-based, HIV-1
# [19] = system: HIV-1 isolate Ba-L; assay: Replication competent virus, PBMC target cells; assay type: cell-based; conditions: envelope subtype B
# [20] = system: HIV-1 isolate 93IN101; assay: Replication competent virus, PBMC target cells; assay type: cell-based; conditions: isolate 93IN101, envelope subtype C
# [21] = system: HIV-1 isolate 92UG046; assay: Replication competent virus, PBMC target cells; assay type: cell-based; conditions: isolate 92UG046, envelope subtype D
# [22] = system: HIV-1 isolate 93TH073; assay: Replication competent virus, PBMC target cells; assay type: cell-based; conditions: isolate 93TH073, envelope subtype E
# [23] = system: HIV-1 isolate 93BR029; assay: Replication competent virus, PBMC target cells; assay type: cell-based; conditions: isolate 93BR029, envelope subtype F
# [24] = system: HIV-1 isolate 92UG037; assay: Replication competent virus, PBMC target cells; assay type: cell-based; conditions: isolate 92UG037, envelope subtype A
# [25] = system: HIV-1 isolate G3; assay: Replication competent virus, PBMC target cells; assay type: cell-based; conditions: isolate G3, envelope subtype G
# [26] = system: HIV-1 isolate 92BR025; assay: Replication competent virus, PBMC target cells; assay type: cell-based; conditions: isolate 92BR025, envelope subtype C
# [27] = Table 4, cholesterol potency-enhancing cargo
substance,measurement,setting,value
GACDYPEWQWLCAAGK [PIE7-GK],IC50,"[1]; Table 2, pseudovirion entry",15800 nM
same,IC50,"[2]; Table 2, pseudovirion entry",390 nM
GACDYPEWQWLCAAGKK [PIE7-GKK],IC50,"[1]; Table 2, pseudovirion entry",19100 nM
same,IC50,"[2]; Table 2, pseudovirion entry",380 nM
HACDYPEWQWLCELGK [PIE15],IC50,"[1]; Table 2, pseudovirion entry",1450 nM
same,IC50,"[2]; Table 2, pseudovirion entry",67 nM
HPCDYPEWQWLCELGK [PIE12],IC50,[3],10200 nM
same,IC50,"[1]; Table 2, pseudovirion entry",578 nM
same,IC50,[1]; [27],580 nM
same,IC50,[4],37 ± 2.3 nM
same,IC50,"[2]; Table 2, pseudovirion entry",37 nM
same,IC50,[2]; [27],37 nM
same,IC50,[5],580 ± 21.4 nM
same,IC50,[6],240 nM
HPCDYPEWQWLCKLGK [PIE13],IC50,"[1]; Table 2, pseudovirion entry",1470 nM
same,IC50,"[2]; Table 2, pseudovirion entry",41 nM
HPCDYPEWQWLCRLGK [PIE14],IC50,"[1]; Table 2, pseudovirion entry",1050 nM
same,IC50,"[2]; Table 2, pseudovirion entry",33 nM
KGACDYKEWQWLCAA [PIE8],IC50,"[1]; Table 2, pseudovirion entry",~110000 nM
KGACDYPEWQWLCAA [PIE7],IC50,"[1]; Table 2, pseudovirion entry",24000 nM
same,IC50,"[2]; Table 2, pseudovirion entry",620 nM
KGACDYPEWQWLCAAGK [K-PIE7-GK],IC50,"[1]; Table 2, pseudovirion entry",14800 nM
KGACDYPEWRWLCAA [PIE2],IC50,"[1]; Table 2, pseudovirion entry",66000 nM
KKGACELLGWEWAWLCAA [D10-p5],IC50,"[1]; Table 2, pseudovirion entry",> 25000 nM
same,inhibit infection of cells,[7],inhibit infection of cells
KKGACESPEWRWLCAA [2K-PIE1],IC50,"[1]; Table 2, pseudovirion entry",> 100000 nM
enfuvirtide [FUZEON ®],IC50,[8],7.03 nM
same,IC50,[9],191 nM
same,IC50,"[1]; Table 2, pseudovirion entry",5 nM
same,IC50,"[2]; Table 2, pseudovirion entry",3.7 nM
same,IC50,[10],5.65 nM
same,IC50,[11],43.8 nM
same,IC50,[12],182 nM
same,IC50,[13],28.3 nM
same,IC50,[14],37 nM
same,IC50,[15],58.5 nM
same,IC50,[16],> 1000 nM
same,IC50,[17],1.65 nM
same,fold less inhibition than PIE12-trimer,[18]; HIV subtype A viruses,> 100 fold
same,fold less inhibition than PIE12-trimer,[18]; subtype C viruses,~60 fold
same,IC50,[19],19.7 nM
same,IC50,[20],22.4 nM
same,IC50,[21],130 nM
same,IC50,[22],198 nM
same,IC50,[23],18.6 nM
same,IC50,[24],41.5 nM
same,IC50,[25],23.3 nM
same,IC50,[26],305 nM
